This passage reports melting point results from a melting point compilation (Tetko et al.; mined from patent text by program, amines drawn as free bases though some values may be those of a salt).

Where only a bound is given, the exact number is not on record here.

In general, melting point refers to the temperature of the solid-liquid transition. In the case of `COc1ccc2c(c1)c(Cc1nc(-c3csc4ccccc34)cs1)c(C)n2C(=O)c1ccc(Cl)cc1`, the melting point is 68 to 72 °C.
The value for `O=C(Nc1ccccc1)C1=C(Nc2ccc(Cl)cc2)COC1=O` was 209 to 210 °C; that for `CC(C)C(C)(C(N)=O)N1C(=O)c2ccc3ccn(C)c3c2C1=O` (stereo unspecified) was 184 to 189 °C; that for `CC(C)(C)OC(=O)CON=C(C(=O)OC(c1ccccc1)c1ccccc1)c1ncsn1` was 139 to 141 °C.
The value for `O=C(CCc1c[nH]c2ccccc12)NCC1CNc2ccccc2O1` (stereo unspecified) was 145 to 146 °C.
The value for `N#CCCN(N)c1cc2ccccc2[nH]1` was 120 to 122 °C; that for `COc1ccc(N2CCCN(c3ccnc4sc(C(N)=O)c(N)c34)CC2)cc1` was 206 to 208 °C.
As for `O=C1c2ccccc2C(=O)N1CCCCn1cnc(-c2ccc([N+](=O)[O-])cc2)c1`, the melting point is 170 to 172 °C.
The value for `COc1ncccc1C(=O)NCCc1ccc(CC(=O)O)cc1` was 157 to 158 °C.
The value for `Cc1c(NC(=O)c2ccc(-c3ccc4c(c3)CCO4)cc2F)ccc2cc(CN3CCCCC3)cnc12` was 202 to 203 °C; that for `Nc1ncc(Sc2ccc(O)cc2)s1` was 187 to 188 °C.
As for `CN(C)CC(O)COc1ccc2c(c1)OC(C)(C)CC2c1cccc2ccccc12` (stereo unspecified), the figure is 123 to 125 °C; as for `COc1cccc(CNc2n[nH]c(N)c2C#N)c1`, 151 to 153 °C; as for `O=[N+]([O-])c1ccc(-c2ccsc2-c2ccc(F)cc2)cc1`, 108 to 110 °C.
Regarding `O=C(N[C@H](Cc1ccc(C(F)(F)F)c(F)c1)[C@@H](O)c1ccc(F)cc1)c1ccc(F)c2ccccc12` (racemic), the melting point fell in the range of 212 to 213 °C.
The value for `CN(c1cccc2cc(C3=NCC(CN4CCOCC4)S3)[nH]c12)S(=O)(=O)c1cccs1` (stereo unspecified) was 139 to 140 °C; that for `CCOC(=O)NC(C)COc1ccc(Oc2ccc(F)cc2)cc1` (stereo unspecified) was 55 to 56 °C; that for `O=C(O)c1csc(Oc2cccc(Cl)c2)n1` was 135 to 137 °C.
As for `Nc1ccc(/C=C/c2ccccc2)cc1`, the figure is 151 °C; as for `CC(=NOCCO)c1ccc2ccccc2n1`, 89 °C.
As for `CN[C@@H]1COc2cc(Cl)cc(-c3ccccc3C)c2O1`, the figure is greater than 245 °C; as for `Cc1oc(-c2ccccc2)nc1CC=Cc1ccc(CCCC2OC(=O)NC2=O)cc1` (stereo unspecified), 136 to 137 °C.
The molecule `CCOC(=O)CN(C)S(=O)(=O)c1ccsc1C(=O)OC` displayed a melting point of 84 to 85 °C.
In the case of `CC(C)c1nc(CCOC(N)=O)n(Cc2ccncc2)c1Sc1cc(Cl)cc(Cl)c1`, the melting point lay within 189 to 191 °C.
In the case of `Cc1nnc(Sc2nc3ccc(Cl)cc3nc2C)s1`, the melting point fell in the range of 189 to 190 °C.
As for `CCCCc1oc2ccccc2c1C(=O)NCc1ccc2cc(OCC(=O)OC)ccc2c1`, the figure is 142 to 143 °C; as for `CN1CCOc2cc(O)ccc21`, 84 to 87 °C.
`CN(C)C(=O)c1ccccc1OCC(=O)NC(C)(C)c1ccc(Cl)cc1` returned a melting point of 127 to 129 °C.
`CNC(=O)NC1CCCCC1` registered a melting point of 135 to 136 °C.
As for `CCn1c(=O)c(-c2cc(OC)cc(OC)c2)cc2cnc(SC)nc21`, the melting point lay in the range of 120 to 122 °C.
The value for `CN1Cc2c(-c3noc(CN4CCCC4)n3)ncn2-c2ccc(F)cc2C1=O` was 158 to 160 °C.
The value for `O=C1c2ccccc2SC12CC2` was 70 °C; that for `CN1C(=O)c2cnc(-c3ccccc3)nc2N(C(=O)CN2CCN(Cc3ccccc3)CC2)c2ccccc21` was 194 °C; that for `CCOCCc1ccc(OCCNc2ncnc(C)c2Cl)c(C)c1` was 57 to 58 °C.
For `CC(CO)NC(=O)COc1cc(Cl)ccc1C(=O)NCCN1CCN(Cc2ccc(Cl)c(Cl)c2)CC1` (stereo unspecified), the melting point lay in the range of 115 to 116 °C.
As for `Cc1nc(N2CCN(CCCc3ccccc3)C2=O)sc1C(=O)O`, the figure is 218 to 221 °C; as for `O=C(O)C1Cc2cccc([N+](=O)[O-])c2C1` (stereo unspecified), 140 °C; as for `O=C1CCC(N2Cc3c(CNC(=O)NC4CCCCC4)cccc3C2=O)C(=O)N1` (stereo unspecified), 309 to 311 °C.
`C[C@]12CC/C(=C\F)C=C1CC[C@@H]1[C@@H]2CC[C@]2(C)C(=O)CC[C@@H]12` yielded a melting point of 101 to 102 °C.
As for `CN(CCc1ccc(O)cc1)[C@H]1CC[C@H](c2ccccc2)CC1`, the melting point fell in the range of 97 to 105 °C.
The value for `C#CCN1CC[C@H](O)C1=O` was 89 to 90 °C; that for `CC(C)(C)OC(=O)CN1C(=O)[C@@H](N[C@@H](CCC2CCCCC2)C(=O)O)COc2ccccc21` was 180 to 183 °C; that for `COc1cc(CC2NC(=O)NC2=O)cc(OC)c1OC` (stereo unspecified) was 180 to 181 °C.
As for `CCOC(=O)C(=O)CC(=O)N1CCOCC1`, the figure is 60 °C.
The molecule `O=C(O)c1ccc(C(=O)Nc2cccc3cc(Br)cnc23)cc1` registered a melting point greater than 300 °C.
As for `ClCc1cnc(Cl)cc1Cl`, the figure is 55 to 56 °C; as for `N#CCCOC(=O)C=Cc1ccccc1`, 62 to 65 °C; as for `CNC(=S)C1(c2ccc(Cl)nc2)CCCCC1=O` (stereo unspecified), 172 to 173 °C.
As for `CCOC(=O)c1sc(SC)c2c1CCc1nc(-c3ccccc3)[nH]c1-2`, the figure is 218 to 219 °C; as for `CCCn1c(Cl)nc2ccc(I)cc2c1=O`, 98 to 100 °C.
The value for `CC(C)(C)OC(=O)Nc1cc(OCC#N)c(-c2ccc(F)cc2)cc1N` was 118 to 119 °C.
In turn, `CCOP(=O)(CCc1ccnc(-c2nc(=O)c3ccc(Cl)cc3s2)c1)OCC` had a melting point of 138 to 139 °C.
`CC(=O)NC[C@H]1CN(c2ccc(C=C(Br)Br)c(F)c2)C(=O)O1`: the melting point was in the range of 177 to 179 °C.
As for `O=C1Cc2ccccc2-c2cc(-c3ccccc3)nn21`, the figure is 181 to 183 °C.
`N#Cc1ccc2c(c1)C(=O)c1cc3c(cc1OC2)OCO3` yielded a melting point of 217 to 220 °C.
`O=C1/C(=C(\NC2CCCCC2)c2ccccc2)Sc2ccccc21` registered a melting point of 122 to 123 °C.
Consider `COc1ccc(NS(=O)(=O)c2ccccc2Br)cc1N(C)C1CCN(C)CC1`, for which the melting point was 119 to 121 °C.
In turn, `CC(=O)c1ccc(C(=O)N2Cc3cccn3Cc3ccccc32)c(Cl)c1` came in with a melting point of 98 to 100 °C.
In turn, `CCc1nc2c(N)nc3cc(CCCNS(C)(=O)=O)ccc3c2n1CC1CCOCC1` yielded a melting point of 168 to 170 °C.
The value for `CC(=O)OC1C(Oc2cc(C)cc(O)c2C(=O)CCc2ccc3occc3c2)OC(CO)C(O)C1O` (stereo unspecified) was 160 °C; that for `O=C(O)CCCC1=C(n2nc(-c3c(-c4ccccc4)nn4ccccc34)ccc2=O)CCCC1` was 145 to 147 °C; that for `COc1ccc(-c2cc3cc(F)c(F)cc3[nH]2)cc1NC(=S)Nc1ccc(C(=O)O)cc1` was 201 to 203 °C.
As for `C#Cc1cccc(OCc2ccc(OC)cc2)c1`, the figure is 92 to 95 °C; as for `CSc1c(-c2ccccc2)[nH]c2ccccc12`, 103 °C.
The value for `CC(=O)NCC1CN(c2cccc(Cl)n2)C1` was 136 to 138 °C.
In turn, `COc1ccc(-c2cnc(S(C)(=O)=O)nc2)cc1OC1CCCC1` returned a melting point of 188 to 190 °C.
